Data published in patent publication US7094909B2, “HIV protease inhibitors, compositions containing the same, their pharmaceutical uses and materials for their synthesis” (priority 2001, dated 2006).
Read-outs that look alike come from different tables or passages of the source.

Experiments:
[1] = target: T1, HIV-1 protease (Q7S mutant form) (Human immunodeficiency virus type 1 group M subtype B, UniProt P04585, Q495S); experiment: HIV-1 Protease RET assay; assay type: biochemical
T1 construct: made in house
Method in brief: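 Q7S HIV-1 protease, refolded from urea, 2 nM active dimer with 5 μM EDANS/DABCYL peptide cleaved at Tyr-Pro; fluorescence 340/490 nm. 12 min at 37 °C in 0.1M sodium acetate pH 4.8, 1M NaCl, 10% DMSO. Ki from Morrison tight-binding fit.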

[2] = test system: HIV-1 (HIV-1 RF, HIV-1 NL4-3) in CEM-SS / MT-2 cells; experiment: Cytopathic effect (CPE) inhibition assay (XTT/MTT dye reduction); assay type: cell-based
Description: T-cell lines, CEM-SS, and MT-2, and viruses HIV-1 RF and HIV-1 NL4-3 (pNL4-3) were obtained from the National Institutes of Health (AIDS Research and Reference Reagent Program, Bethesda, Md.).
Cytopathic Effect (CPE) Inhibition Assays
The ability of compounds to protect cells against HIV infection was measured by the […] dye reduction method, essentially as described (See Pauwels, R. Balzarini, J. Baba, M. Snoeck, R. Schols, D. Herdewijn, P. Desmyter, J. and De Clercq, E. 1988, “Rapid and automated tetrazolium-based colorimetric assay for the detection of anti-HIV compounds,”. J Virol. Methods., 20: 309–321 and Weislow, O. S. Kiser, R. Fine, D. L. Bader, J. Shoemaker, R. H. and Boyd, M. R. 1989. “New soluble-formazan assay for HIV-1 cytopathic effects: application to high-flux screening of synthetic and natural products for AIDS-antiviral activity”. J. Natl. Cancer Inst. 81:577–586). Subject cells were infected with test virus at an moi of 0.025 to 0.819 or mock infected with medium only and added at 2×10^4 cells per well into 96 well plates containing half-log dilutions of test compounds. Six days later, 50 μl of XTT (1 mg/ml XTT tetrazolium, 0.02 nM phenazine methosulfate) was added to the wells and the plate was reincubated for four hours. Viability, as determined by the amount of XTT formazan produced, was quantified spectrophotometrically by absorbance at 450 nm. Data from CPE assays were expressed as the percent of formazan produced in compound-treated cells compared to formazan produced in wells of uninfected, compound-free cells. The fifty percent effective concentration (EC50) was calculated as the concentration of compound that effected an increase in the percentage of formazan production in infected, compound-treated cells to 50% of that produced by uninfected, compound-free cells. The 50% cytotoxicity concentration (CC50) was calculated as the concentration of compound that decreased the percentage of formazan produced in uninfected, compound-treated cells to 50% of that produced in uninfected, compound-free cells. The therapeutic index was calculated by dividing the cytotoxicity (CC50) by the antiviral activity (EC50).

[3] = Ave. Ki (nM), RET assay, Q7S enzyme, Morrison tight binding fit
[4] = Human immunodeficiency virus 1, NL43, read-out: Ave CPE EC50
[5] = Human immunodeficiency virus 1, NL43, unit inferred, read-out: EC50

Compound | Ki [1, 3] | EC50 [2, 4] | Ki ([1]; Ki, unit inferred) | EC50 [2, 5] | EC50 ([2]; Human immunodeficiency virus 1, NL43, read-out: Ave CPE EC50 (mM))
C#CCOC(=O)N[C@@H](Cc1ccccc1)[C@H](O)C(=O)N1CSC(C)(C)[C@H]1C(=O)NCc1ccc(OC)cc1 [Example B64, {(1S,2S)-1-Benzyl-2-hydroxy-3-[4-(4-methoxy-benzylcarbamoyl)-5,5-dimethyl-thiazolidin-3-yl]-3-oxo-propyl}-carbamic acid prop-2-ynyl ester] | 0.53 nM | 1600 nM |  |  | 
C#CCNC(=O)[C@H]1N(C(=O)[C@@H](O)[C@H](Cc2ccccc2)NC(=O)c2cccc3[nH]ncc23)CSC1(C)C [Example B35, 1-H-indazole-4-carboxylic acid [1-benzyl-3-(5,5-dimethyl-4-prop-2-ynylcarbamoyl-thiazolidin-3-yl)-2-hydroxy-3-oxo-propyl]-amide] | 11 nM | 564 nM |  |  | 
CCC(C)C(=O)NC(Cc1ccccc1)C(O)C(=O)N1CSC(C)(C)[C@H]1C(=O)NCc1ccccc1C (stereo partly drawn) [Example B65, 3-[(2S,3S)-2-Hydroxy-3-((S)-2-methyl-butyrylamino)-4-phenyl-butyryl]-5,5-dimethyl-thiazolidine-4-carboxylic acid 2-methyl-benzylamide] | 4.9 nM | 1640 nM |  |  | 
Cc1ccccc1CNC(=O)[C@H]1N(C(=O)[C@@H](O)[C@H](Cc2ccccc2)NC(=O)OC(C)C)CSC1(C)C [Example B16, {(S)-1-Benzyl-3-[5,5-dimethyl-4-(2-methyl-benzylcarbamoyl)-thiazolidin-3-yl]-2-hydroxy-3-oxo-propyl}-carbamic acid isopropyl ester] | 2.6 nM | 1570 nM |  |  | 
Cc1ccccc1C(=O)N[C@@H](Cc1ccccc1)[C@H](O)C(=O)N1CSC(C)(C)[C@H]1C(=O)N[C@H]1CCc2ccccc21 [Example B78, (R)-3-{(2S,3S)-2-Hydroxy-4-phenyl-3-[(1-o-tolyl-methanoyl)-amino]-butanoyl}-5,5-dimethyl-thiazolidine-4-carboxylic acid (S)-indan-1-ylamide] | 0.18 nM | 557 nM |  |  | 
Cc1ccccc1CNC(=O)C1N(C(=O)[C@@H](O)[C@H](Cc2ccccc2)NC(=O)CSc2nc3ccccc3[nH]2)CSC1(C)C (stereo partly shown) |  |  | 17.4 nM | ≥ 3200 nM | 
CCCNC(=O)[C@H]1N(C(=O)[C@@H](O)[C@H](Cc2ccccc2)NC(=O)OCCC)CSC1(C)C |  |  | 12.7 nM | ≥ 3200 nM | 
CC1(C)SCN(C(=O)[C@@H](O)[C@H](Cc2ccccc2)NC(=O)c2cccc3c2CCN3)[C@@H]1C(=O)N[C@@H]1C=CCCC1 [Example B41, 2,3-Dihydro-1H-indole-carboxylic acid {(1S,2S)-1-benzyl-3-[(R)-4-((S)-cyclohex-2-enylcarbamoyl)-5,5-dimethyl-thiazolidin-3-yl]-2-hydroxy-3-oxo-propyl}-amide] | 0.11 nM | 268 nM |  |  | 
Cc1c(F)cccc1C(=O)N[C@@H](Cc1ccccc1)[C@H](O)C(=O)N1CSC(C)(C)[C@H]1C(=O)N[C@H]1CCc2ccccc21 [Example B82, (R)-3-((2S,3S)-3-{[1-(3-Fluoro-2-methyl-phenyl)-methanoyl]-amino}-2-hydroxy-4-phenyl-butanoyl)-5,5-dimethyl-thiazolidine-4-carboxylic acid (S)-indan-1-ylamide] | 0.19 nM | 1290 nM |  |  | 
Cc1ccccc1CNC(=O)[C@@H]1CC(F)(F)CN1C(=O)[C@@H](O)[C@H](Cc1ccccc1)NC(=O)O[C@H]1CCOC1 [Example C41, {(1S,2S)-1-Benzyl-3-[(S)-4,4-difluoro-2-(2-methyl-benzylcarbamoyl)-pyrrolidin-1-yl]-2-hydroxy-3-oxo-propyl}-carbamic acid (S)-(tetrahydro-furan-3-yl)ester] | 1.3 nM | 1430 nM |  |  | 
Cc1ccccc1CNC(=O)[C@H]1N(C(=O)[C@@H](O)[C@H](Cc2ccccc2)NC(=O)COc2cccc(N3CCOCC3)c2)CSC1(C)C |  |  | 4.4 nM | ≥ 3200 nM | 
CC1(C)SCN(C(=O)[C@@H](O)[C@H](Cc2ccccc2)NC(=O)c2cccc3c2CCN3)[C@@H]1C(=O)NCc1ccco1 [Example B39, 2,3-Dihydro-1H-indole-4-carboxylic acid ((1S,2S)-1-benzyl-3-{(R)-4-[(furan-2-ylmethyl)-carbamoyl]-5,5-dimethyl-thiazolidin-3-yl}-2-hydroxy-3-oxo-propyl)-amide] | 1.9 nM | 372 nM |  |  | 
Cc1ccc(C(=O)N[C@@H](Cc2ccccc2)[C@H](O)C(=O)N2CSC(C)(C)C2C(=O)N[C@@H]2C=CCCC2)c(C)c1O (stereo partly shown) |  |  | 0.13 nM | 1160 nM | 
CC1(C)SCN(C(=O)[C@@H](O)[C@H](Cc2ccccc2)NC(=O)CSc2nc[nH]n2)[C@@H]1C(=O)N[C@H]1CCOc2ccccc21 [Example B31, (R)-3-{(2S,3S)-2-Hydroxy-4-phenyl-3-[2-(1H-[1,2,4]triazol-3-ylsulfanyl)-ethanoylamino]-butanoyl}-5,5-dimethyl-thiazolidine-4-carboxylic acid (S)-chroman-4-ylamide] | 4.7 nM | > 1000 nM |  |  | 
Cc1ccccc1CNC(=O)[C@@H]1CC(F)(F)CN1C(=O)[C@@H](O)[C@H](Cc1ccccc1)NC(=O)C1C(C)C(=O)ON1C (stereo partly shown) |  |  | 3.6 nM | ≥ 3200 nM | 
Cc1ccccc1CNC(=O)[C@@H]1N(C(=O)[C@@H](O)[C@H](Cc2ccccc2)NC(=O)c2cccc(O)c2C)CSC12CCCC2 |  |  | 0.34 nM | 40 nM | 
Cc1c(O)cccc1C(=O)N[C@@H](Cc1ccccc1)[C@H](O)C(=O)N1CSC(C)(C)[C@H]1C(=O)N1CCc2ccccc2C1 |  |  | 9 nM | 1180 nM | 
C=CCNC(=O)N[C@@H](Cc1ccccc1)[C@H](O)C(=O)N1CSC(C)(C)[C@H]1C(=O)NCc1ccccc1C [Example B13, (R)-3-[(2S,3S)-3-(3-Allyl-ureido)-2-hydroxy-4-phenyl-butyryl]-5,5-dimethyl-thiazolidine-4-carboxylic acid 2-methyl-benzylamide] | 2 nM | 1460 nM |  |  | 
CCCNC(=O)[C@@H]1CC(F)(F)CN1C(=O)[C@@H](O)[C@H](Cc1ccccc1)NC(=O)c1cccc(O)c1C [Example C7, 4,4-Difluoro-1-[2-hydroxy-3-(3-hydroxy-2-methyl-benzoylamino)-4-phenyl-butyryl]-pyrrolidine-2-carboxylic acid propylamide] | 3 nM | 347 nM |  |  | 
Cc1c(O)cccc1C(=O)N[C@@H](Cc1ccccc1)[C@H](O)C(=O)N1CSC(C)(C)[C@H]1C(=O)NCc1cccnc1 [Example A5, (R)-3-((2S,3S)-2-Hydroxy-3-{[1-(3-hydroxy-2-methyl-phenyl)-methanoyl]-amino}-4-phenyl-butanoyl)-5,5-dimethyl-thiazolidine-4-carboxylic acid (pyridin-3-ylmethyl)-amide] | 0.2 nM | 148 nM |  |  | 
Cc1c(O)cccc1C(=O)N[C@@H](Cc1ccccc1)[C@H](O)C(=O)N1CSC(C)(C)[C@H]1C(=O)NCc1ccc2c(c1)OC(F)(F)O2 [Example A59, (R)-3-((2S,3S)-2-Hydroxy-3-{[1-(3-hydroxy-2-methyl-phenyl)-methanoyl]-amino}-4-phenyl-butanoyl)-5,5-dimethyl-thiazolidine-4-carboxylic acid (2,2-difluoro-benzo[1,3]dioxol-5-ylmethyl)-amide] | 0.19 nM |  |  |  | 417 nM
COc1cccc(CNC(=O)[C@@H]2CC(F)(F)CN2C(=O)[C@@H](O)[C@H](Cc2ccccc2)NC(=O)c2cccc(O)c2C)c1 [Example C12, (S)-4,4-Difluoro-1-[(2S,3S)-2-hydroxy-3-(3-hydroxy-2-methyl-benzoylamino)-4-phenyl-butyryl]-pyrrolidine-2-carboxylic acid 3-methoxy-benzylamide] | 2.7 nM | 1770 nM |  |  | 
Cc1c(O)cccc1C(=O)N[C@@H](Cc1ccccc1)[C@H](O)C(=O)N1CSC(C)(C)[C@H]1C(=O)NC1CCC1 [Example A26, (R)-3-((2S,3S)-2-Hydroxy-3-{[1-(3-hydroxy-2-methyl-phenyl)-methanoyl]-amino}-4-phenyl-butanoyl)-5,5-dimethyl-thiazolidine-4-carboxylic acid cyclobutylamide] | 0.6 nM | 168 nM |  |  | 
